Patent publication US20230061736A1, “GPR119 AGONISTS” (Kallyope, Inc., priority 2019, published 2023)

Target: T1, human GPR119 (hGPR119) (Homo sapiens, UniProt Q8TDV5)
T1 construct: expressed in transfected cells
T1 sequence (Q8TDV5 1-335): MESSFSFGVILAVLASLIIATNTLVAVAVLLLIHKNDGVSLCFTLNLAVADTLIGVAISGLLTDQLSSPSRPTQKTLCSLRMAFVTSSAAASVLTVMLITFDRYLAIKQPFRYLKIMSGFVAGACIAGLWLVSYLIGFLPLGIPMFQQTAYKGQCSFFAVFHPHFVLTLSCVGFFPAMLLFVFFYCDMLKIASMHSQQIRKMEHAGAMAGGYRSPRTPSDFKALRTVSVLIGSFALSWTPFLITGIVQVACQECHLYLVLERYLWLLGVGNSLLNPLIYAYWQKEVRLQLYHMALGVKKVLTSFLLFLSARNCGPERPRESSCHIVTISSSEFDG
Assay: cAMP accumulation assay (cAMP Gs dynamic HTRF kit)
Type: cell-based
Settings: CHO-K1 cells stably expressing hGPR119, 4-parameter fit; for Emax: 1 h, % activity normalized to Max/Min controls; for EC50: cAMP accumulation
In short: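 Read-out is HTRF 665/620 nm ratio after 1 h detection at ambient temperature, converted to % activity against positive and negative controls, EC50 and Max activity by 4-parameter fit. Compounds were titrated onto ~10,000 thawed hGPR119-CHO-K1 cells/well for 60 min at 37° C/5% CO2.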

SMILES | Emax [%] | EC50 [µM]
O=C(Cc1ccc(OCCCC2CC23CCN(c2ncc(Cl)cn2)CC3)cc1F)N1CC(CNC[C@H](O)[C@@H](O)[C@H](O)[C@H](O)CO)C1 (stereo partly drawn) [Example 142, 2-[4-[3-[6-(5-chloropyrimidin-2-yl)-6-azaspiro[2.5]octan-2-yl]propoxy]-2-fluoro-phenyl]-1-[3-[[[(2S,3R,4R,5R)-2,3,4,5,6-pentahydroxyhexyl]amino]methyl]azetidin-1-yl]ethanone] | 100 to 130 | 0.1 to 1
O=C(Cc1c(F)cc(OCCCC2CC23CCN(c2ncc(Cl)cn2)CC3)cc1F)N1CC(CNC[C@H](O)[C@@H](O)[C@H](O)[C@H](O)CO)C1 (stereo partly drawn) [Example 143] | 100 to 130 | 0.1 to 1
O=C(Cc1ccc(OCCCC2CCC23CCN(c2ncc(Cl)cn2)CC3)cc1F)N1CC(CNC[C@H](O)[C@@H](O)[C@H](O)[C@H](O)CO)C1 (stereo partly drawn) [Example 144, 2-[4-[3-[7-(5-chloropyrimidin-2-yl)-7-azaspiro[3.5]nonan-3-yl]propoxy]-2-fluoro-phenyl]-1-[3-[[[(2S,3R,4R,5R)-2,3,4,5,6-pentahydroxyhexyl]amino]methyl]azetidin-1-yl]ethanone] | 100 to 130 | 1 to 10
CC(C)OC(=O)N1CCC2(CC1)CC2CCCOc1ccc(CC(=O)N2CC(CNC[C@H](O)[C@@H](O)[C@H](O)[C@H](O)CO)C2)c(F)c1 (stereo partly drawn) [Example 145, isopropyl 2-[3-[3-fluoro-4-[2-oxo-2-[3-[[[(2S,3R,4R,5R)-2,3,4,5,6-pentahydroxyhexyl]amino]methyl]azetidin-1-yl]ethyl]phenoxy]propyl]-6-azaspiro[2.5]octane-6-carboxylate] | 50 to 100 | 1 to 10
CC(C)OC(=O)N1CCC2(CC1)CC2CCCOc1cc(F)c(CC(=O)N2CC(CNC[C@H](O)[C@@H](O)[C@H](O)[C@H](O)CO)C2)c(F)c1 (stereo partly drawn) [Example 146, isopropyl 2-[3-[3,5-difluoro-4-[2-oxo-2-[3-[[[(2S,3R,4R,5R)-2,3,4,5,6-pentahydroxyhexyl]amino]methyl]azetidin-1-yl]ethyl]phenoxy]propyl]-6-azaspiro[2.5]octane-6-carboxylate] | 100 to 130 | 0.1 to 1
O=C(Cc1ccc(OCCCC2CCN(c3ncc(Cl)cn3)CC2)cc1F)N1CC[C@@H](CNCC(CO)(CO)CO)C1 [Example 147, 2-[4-[3-[1-(5-chloropyrimidin-2-yl)-4-piperidyl]propoxy]-2-fluoro-phenyl]-1-[(3S)-3-[[[3-hydroxy-2,2-bis(hydroxymethyl)propyl]amino]methyl]pyrrolidin-1-yl]ethanone] | 100 to 130 | ≤ 0.1
O=C(Cc1ccc(OCCCC2CCN(c3ncc(Cl)cn3)CC2)cc1F)N1CC[C@@H](CNC(CO)(CO)CO)C1 [Example 148, 2-[4-[3-[1-(5-chloropyrimidin-2-yl)-4-piperidyl]propoxy]-2-fluoro-phenyl]-1-[(3S)-3-[[[2-hydroxy-1,1-bis(hydroxymethyl)ethyl]amino]methyl]pyrrolidin-1-yl]ethanone] | ≥ 130 | ≤ 0.1
O=C(Cc1c(F)cc(OCCCC2CCN(c3ncc(Cl)cn3)CC2)cc1F)N1CC[C@@H](CNC(CO)(CO)CO)C1 [Example 149, 2-[4-[3-[1-(5-chloropyrimidin-2-yl)-4-piperidyl]propoxy]-2,6-difluoro-phenyl]-1-[(3S)-3-[[[2-hydroxy-1,1-bis(hydroxymethyl)ethyl]amino]methyl]pyrrolidin-1-yl]ethanone] | ≥ 130 | ≤ 0.1
O=C(Cc1c(F)cc(OCCCC2CCN(c3ncc(Cl)cn3)CC2)cc1F)N1CC[C@@H](CNCC(O)(CO)CO)C1 [Example 150, 2-[4-[3-[1-(5-chloropyrimidin-2-yl)-4-piperidyl]propoxy]-2,6-difluoro-phenyl]-1-[(3S)-3-[[[2,3-dihydroxy-2-(hydroxymethyl)propyl]amino]methyl]pyrrolidin-1-yl]ethanone] | 100 to 130 | ≤ 0.1
O=C(Cc1c(F)cc(OCCCC2CCN(c3ncc(Cl)cn3)CC2)cc1F)N1CC[C@@H](CNCC(CO)(CO)CO)C1 [Example 151, 2-[4-[3-[1-(5-chloropyrimidin-2-yl)-4-piperidyl]propoxy]-2,6-difluoro-phenyl]-1-[(3S)-3-[[[3-hydroxy-2,2-bis(hydroxymethyl)propyl]amino]methyl]pyrrolidin-1-yl]ethanone] | ≥ 130 | ≤ 0.1
CCOc1cnc(N2CCC(CCCOc3ccc(CC(=O)N4CC[C@@H](CNC(CO)(CO)CO)C4)c(F)c3)CC2)nc1 [Example 152, 2-[4-[3-[1-(5-ethoxypyrimidin-2-yl)-4-piperidyl]propoxy]-2-fluoro-phenyl]-1-[(3S)-3-[[[2-hydroxy-1,1-bis(hydroxymethyl)ethyl]amino]methyl]pyrrolidin-1-yl]ethanone] | ≥ 130 | ≤ 0.1
CCOc1cnc(N2CCC(CCCOc3ccc(CC(=O)N4CC[C@@H](CNCC(O)(CO)CO)C4)c(F)c3)CC2)nc1 [Example 153, 2-[4-[3-[1-(5-ethoxypyrimidin-2-yl)-4-piperidyl]propoxy]-2-fluoro-phenyl]-1-[(3S)-3-[[[2,3-dihydroxy-2-(hydroxymethyl)propyl]amino]methyl]pyrrolidin-1-yl]ethanone] | ≥ 130 | ≤ 0.1
CCOc1cnc(N2CCC(CCCOc3ccc(CC(=O)N4CC[C@@H](CNCC(CO)(CO)CO)C4)c(F)c3)CC2)nc1 [Example 154, 2-[4-[3-[1-(5-ethoxypyrimidin-2-yl)-4-piperidyl]propoxy]-2-fluoro-phenyl]-1-[(3S)-3-[[[3-hydroxy-2,2-bis(hydroxymethyl)propyl]amino]methyl]pyrrolidin-1-yl]ethanone] | 100 to 130 | ≤ 0.1
CCOc1cnc(N2CCC(CCCOc3cc(F)c(CC(=O)N4CC[C@@H](CNCC(O)(CO)CO)C4)c(F)c3)CC2)nc1 [Example 156, 2-[4-[3-[1-(5-ethoxypyrimidin-2-yl)-4-piperidyl]propoxy]-2,6-difluoro-phenyl]-1-[(3S)-3-[[[2,3-dihydroxy-2-(hydroxymethyl)propyl]amino]methyl]pyrrolidin-1-yl]ethanone] | ≥ 130 | ≤ 0.1
CCOc1cnc(N2CCC(CCCOc3cc(F)c(CC(=O)N4CC[C@@H](CNCC(CO)(CO)CO)C4)c(F)c3)CC2)nc1 [Example 157, 2-[4-[3-[1-(5-ethoxypyrimidin-2-yl)-4-piperidyl]propoxy]-2,6-difluoro-phenyl]-1-[(3S)-3-[[[3-hydroxy-2,2-bis(hydroxymethyl)propyl]amino]methyl]pyrrolidin-1-yl]ethanone] | ≥ 130 | ≤ 0.1
COCc1cnc(N2CCC(CCCOc3cc(F)c(CC(=O)N4CC[C@@H](CNC(CO)(CO)CO)C4)c(F)c3)CC2)nc1 [Example 158, 2-[2,6-difluoro-4-[3-[1-[5-(methoxymethyl)pyrimidin-2-yl]-4-piperidyl]propoxy]phenyl]-1-[(3S)-3-[[[2-hydroxy-1,1-bis(hydroxymethyl)ethyl]amino]methyl]pyrrolidin-1-yl]ethanone] | 100 to 130 | ≤ 0.1
COCc1cnc(N2CCC(CCCOc3cc(F)c(CC(=O)N4CC[C@@H](CNCC(O)(CO)CO)C4)c(F)c3)CC2)nc1 [Example 159, 2-[2,6-difluoro-4-[3-[1-[5-(methoxymethyl)pyrimidin-2-yl]-4-piperidyl]propoxy]phenyl]-1-[(3S)-3-[[[2,3-dihydroxy-2-(hydroxymethyl)propyl]amino]methyl]pyrrolidin-1-yl]ethanone] | 100 to 130 | ≤ 0.1
COCc1cnc(N2CCC(CCCOc3cc(F)c(CC(=O)N4CC[C@@H](CNCC(CO)(CO)CO)C4)c(F)c3)CC2)nc1 [Example 160, 2-[2,6-difluoro-4-[3-[1-[5-(methoxymethyl)pyrimidin-2-yl]-4-piperidyl]propoxy]phenyl]-1-[(3S)-3-[[[3-hydroxy-2,2-bis(hydroxymethyl)propyl]amino]methyl]pyrrolidin-1-yl]ethanone] | ≥ 130 | ≤ 0.1
COCc1cnc(N2CCC([C@H]3C[C@H]3CCOc3ccc(CC(=O)N4CC[C@@H](CNCC(O)(CO)CO)C4)c(F)c3)CC2)nc1 [Example 162, 2-[2-fluoro-4-[2-[(1S,2R)-2-[1-[5-(methoxymethyl)pyrimidin-2-yl]-4-piperidyl]cyclopropyl]ethoxy]phenyl]-1-[(3S)-3-[[[2,3-dihydroxy-2-(hydroxymethyl)propyl]amino]methyl]pyrrolidin-1-yl]ethanone] | 100 to 130 | ≤ 0.1
COCc1cnc(N2CCC([C@H]3C[C@H]3CCOc3ccc(CC(=O)N4CC[C@@H](CNCC(CO)(CO)CO)C4)c(F)c3)CC2)nc1 [Example 163, 2-[2-fluoro-4-[2-[(1S,2R)-2-[1-[5-(methoxymethyl)pyrimidin-2-yl]-4-piperidyl]cyclopropyl]ethoxy]phenyl]-1-[(3S)-3-[[[3-hydroxy-2,2-bis(hydroxymethyl)propyl]amino]methyl]pyrrolidin-1-yl]ethanone] | 100 to 130 | ≤ 0.1
O=C(Cc1ccc(OCCCC2CCN(c3ncc(Cl)cn3)CC2)cc1F)N1CC(CCNC[C@H](O)[C@H](O)[C@H](O)CO)C1 [Example 164, 2-[4-[3-[1-(5-chloropyrimidin-2-yl)-4-piperidyl]propoxy]-2-fluoro-phenyl]-1-[3-[2-[[(2S,3S,4R)-2,3,4,5-tetrahydroxypentyl]amino]ethyl]azetidin-1-yl]ethanone] | 100 to 130 | ≤ 0.1
